Molecules are shown by their SMILES.

The nature of this data set: RP, Thermo Scientific Acclaim RSLC 120 C18, 100 × 2.1 mm, 2.2 µm, 30 °C, 0.2 mL/min, estimated dead time 1.1 min; A: 90% water + 10% methanol + 0.01% formic acid + 5 mM ammonium formate, pH 3.61; B: methanol + 0.01% formic acid + 5 mM ammonium formate, pH 3.61; gradient (min/%B) 0/1 1/1 2/39 13/99.9 15/99.9 15.1/1 20.1/1. To be noted: stereoisomer not certain.
Consider `CN1CCCCC1CCN1c2ccccc2Sc2ccc(S(C)=O)cc21` (stereo not given) [Mesoridazine], for which the LC retention time was 6.74 min. `CCN(CCO)CCn1c(Cc2ccccc2)nc2c1c(=O)n(C)c(=O)n2C` [Bamifylline]: the LC retention time is 5.24 min.

As to `C=C(c1ccc(C(=O)O)cc1)c1cc2c(cc1C)C(C)(C)CCC2(C)C` [Bexarotene], the LC retention time is 14.1 min. Under `CCCCc1c(C)nc(NCC)nc1OS(=O)(=O)N(C)C` [Bupirimate] stands 10.5 min; under `CC(C)(C)C(O)C(=Cc1ccc(Cl)cc1)n1cncn1` (stereo not given) [Uniconazole], 10.5 min; under `CCOc1nc2cccc(C(=O)OC(C)OC(=O)OC3CCCCC3)c2n1Cc1ccc(-c2ccccc2-c2nn[nH]n2)cc1` (stereo not given) [Candesartan cilexetil], 12.2 min. On to `CC1(C)OCC2OC3(C(=O)O)OC(C)(C)OC3C2O1` (stereo not given) [Dikegulac], for which the LC retention time was 4.76 min. Under `C=C1CC2C(CCC3(C)C(=O)CCC23)C2(C)C=CC(=O)C=C12` (stereo not given) [Exemestane] stands 9.03 min; under `O=C(NCc1ccccc1)c1cn(CCCCCF)c2ccccc12` [SDB-006-5F], 10 min. Under `CCCCCn1c2ccccc2c2cc(C(=O)c3cccc4ccccc34)ccc21` [EG-018] stands 14.2 min; under `CCOP(=S)(OCC)SCn1c(=O)oc2cc(Cl)ccc21` [Phosalone], 11.3 min; under `Cc1c(Nc2ncccc2C(=O)O)cccc1C(F)(F)F` [Flunixin], 9.09 min.

As for `Cc1noc(NS(=O)(=O)c2ccc(N)cc2)c1C` [Sulfisoxazole], the LC retention time is 4.71 min. With `O=C(NC(=O)c1c(F)cccc1F)Nc1cc(Cl)c(OC(F)(F)C(F)C(F)(F)F)cc1Cl` (stereo not given) [Lufenuron], the LC retention time was 12.5 min. With `CCCCn1cc(C(=O)c2cccc3ccc(C)cc23)c2ccccc21` [JWH-073-2-Methyl], the LC retention time was 12.3 min.

Regarding `CSc1nc2ccccc2s1` [Benzothiazole- 2-Me-S], the LC retention time was 9.79 min. Next, `CC(CN(C)C)CN1c2ccccc2Sc2ccc(C#N)cc21` (stereo not given) [Cyamemazine]: 7.52 min; `CC(C)Nc1nc(NC(C)C)[nH]c(=O)n1` [Propazine-2-hydroxy (Prometon-Hydroxy)]: 5.96 min; `Cn1cc[nH]c1=S` [Methimazole]: 2.61 min.

Consider `CNC(=O)Oc1cc(C)c(SC)c(C)c1` [Methiocarb (Mercaptodimethur)], for which the LC retention time was 9.34 min. Under `CN1CCN(C=C2N=C3CN=C(c4ccccc4Cl)c4cc([N+](=O)[O-])ccc4N3C2=O)CC1` [Loprazolam] stands 6.95 min. Under `C=C(c1ccccc1OCc1cccc(Cl)c1)n1ccnc1` [Croconazole] stands 10.7 min; under `CCCCCCCCCCCC[N+](C)(C)Cc1ccccc1` [Benzododecinium (Benzyl-dimethyl-dodecylammonium)], 11.2 min; under `CCOc1ccccc1C(N)=O` [Ethenzamide], 5.68 min.

Take `CCCNC(=O)NS(=O)(=O)c1ccc(Cl)cc1` [Chlorpropamide]: the LC retention time was 7.19 min.

Take `CNC(=N[N+](=O)[O-])NCC1CCOC1` (stereo not given) [Dinotefuran]: the LC retention time is 3.59 min. Under `O=C(NC(=O)c1c(F)cccc1F)Nc1cc(Cl)c(Oc2ncc(C(F)(F)F)cc2Cl)c(Cl)c1` [Chlorfluazuron] stands 13.2 min; under `O=C1NCN(c2ccccc2)C12CCN(CCCC(c1ccc(F)cc1)c1ccc(F)cc1)CC2` [Fluspirilen], 9.19 min; under `CCCN(CCOc1c(Cl)cc(Cl)cc1Cl)C(=O)NC=O`, 11.2 min.

For the compound `CC(C)OC(=O)c1cc(C(=O)OC(C)C)cc([N+](=O)[O-])c1` [Nitrothal-isopropyl], the LC retention time is 12 min. `CC1=C(C(=O)Nc2ccccc2)SCCO1` [Carboxin]: the LC retention time was 7.46 min. As for `CCOC(=O)N1CCC(=C2c3ccc(Cl)cc3CCc3cccnc32)CC1` [Loratadine], the LC retention time is 11.5 min. Next, `CN1CCC(=C2c3ccccc3CCc3cccnc32)CC1` [Azatadine]: 5.99 min; `CCOC(=O)Nc1ccc(NCc2ccc(F)cc2)nc1N` [Flupirtine]: 7.09 min.

As to `CCCc1nn(C)c2c(=O)[nH]c(-c3cc(C(=O)CN4CCN(CCO)CC4)ccc3OCC)nc12` [Acetildenafil-Hydroxy], the LC retention time was 6.94 min.

On to `COc1cc2c(cc1OC)CC(=O)N(CCCN(C)CC1Cc3cc(OC)c(OC)cc31)CC2` (stereo not given) [Ivabradine], for which the LC retention time is 5.02 min. Under `Cc1ccccc1CN1CCN(CCOC(c2ccccc2)c2ccccc2Cl)CC1` (stereo not given) [Chlorbenzoxamine] stands 10.8 min.

Turning to `CCCCCCC(C)(C)c1ccc(C2CC(O)CCC2CCCO)c(O)c1` (stereo not given) [CP 55-940], the LC retention time is 12 min. Under `CCOP(=S)(OCC)Oc1ccc(S(C)=O)cc1` (stereo not given) [Fensulfothion] stands 8.27 min. Next, `CN1C(=O)C(O)N=C(c2ccccc2Cl)c2cc(Cl)ccc21` (stereo not given) [Lormetazepam]: 8.61 min; `CC(C)[N+]1(C)C2CCC1CC(OC(=O)C(CO)c1ccccc1)C2` (stereo not given) [Ipratropium]: 4.17 min; `CC(C)OC(=O)NC(C(=O)NC(C)c1nc2ccc(F)cc2s1)C(C)C` (stereo not given) [Benthiavalicarb-isopropyl]: 9.48 min. Under `Cc1c(NC(=O)c2cccnc2)c(=O)n(-c2ccccc2)n1C` [Nifenazone] stands 4.56 min; under `CCCCCCCCn1sccc1=O` [2-Octyl-4-isothiazolin-3-one], 10.3 min. Consider `CNC1(c2ccccc2Cl)CCCCC1=O` (stereo not given) [Ketamine], for which the LC retention time was 4.61 min. Under `COc1cc(C(=O)OCCCN(C)CCN(C)CCCOC(=O)c2cc(OC)c(OC)c(OC)c2)cc(OC)c1OC` [Hexobendine] stands 7.54 min; under `CSc1nnc(C(C)(C)C)c(=O)[nH]1` [Metribuzin-Desamino (DA)], 7.46 min. Turning to `Cc1cccc(C)c1N(Cn1cccn1)C(=O)CCl` [Metazachlor], the LC retention time is 8.11 min. For `COc1cc2[nH]c(C)c(CCN3CCN(c4ccccc4)CC3)c2cc1OC` [Oxypertine], the LC retention time is 5.76 min. On to `OC(c1ccccc1)(c1ccccc1)C1CCCCN1` (stereo not given) [Pipradrol], for which the LC retention time is 5.78 min. Under `CN(C)CCN(Cc1cccs1)c1ccccc1` [Methaphenilene] stands 6.32 min.

For the compound `S=C1N=CN=C2N=CN=C12` [Mercaptopurine (6-)], the LC retention time was 2.61 min. In the case of `CN(C)CC(c1ccc(O)cc1)C1(O)CCCCC1` (stereo not given) [Venlafaxine-O-Desmethyl (Desvenlafaxine)], the LC retention time was 4.76 min. Next, `CC(N)Cc1ccc2occc2c1` (stereo not given) [5-(2-aminopropyl)benzofuran (5-APB)]: 4.79 min; `CCOc1ccc(S(=O)(=O)O)c2cccnc12` [Actinoquinol]: 3.56 min.

In the case of `CNCCC(Oc1cccc2ccccc12)c1cccs1` (stereo not given) [Duloxetine], the LC retention time is 8.11 min.

`CCOC(=O)C(C)OC(=O)c1cc(Oc2ccc(C(F)(F)F)cc2Cl)ccc1[N+](=O)[O-]` (stereo not given) [Lactofen]: the LC retention time was 12.2 min.

As to `Nc1nc(=O)n(C2CSC(CO)O2)cc1F` (stereo not given) [Emtricitabine], the LC retention time is 3.41 min. Next, `CN1CCN(CCCN2c3ccccc3Sc3ccc(C(F)(F)F)cc32)CC1` [Trifluoperazine]: 10.2 min; `CC1(C)C(C(=O)c2nn(CCCCCF)c3ccccc23)C1(C)C` [FAB-144]: 12.7 min.

Consider `CC12CC(O)C3C(CCC4=CC(=O)CCC43C)C1CCC2=O` (stereo not drawn) [4-Androsten-11beta-ol-3,17-dione], for which the LC retention time was 8.23 min. In the case of `CCCCC1=NC2(CCCC2)C(=O)N1Cc1ccc(-c2ccccc2-c2nn[nH]n2)cc1` [Irbesartan], the LC retention time is 9.44 min. Next, `CCCCn1c(O)c(C(=O)c2cccc3ccccc23)c2ccccc21` [JWH-073-M-2-OH-Ind]: 13.5 min.

`NC1=NCCN1Cc1ccc(Cl)nc1` [Imidacloprid-guanidine]: the LC retention time was 11 min. For `CCCCCn1cc(C(=O)c2ccc(C)c3ccccc23)c2ccccc21` [JWH-122], the LC retention time was 12.9 min. Under `Oc1ccc2c3c1OC1C(O)CCC4(O)C(C2)N(CC2CCC2)CCC314` (stereo not given) [Nalbuphine] stands 4.17 min; under `CN1CCN(C)C1=O` [Imidazolidinon- 1-3-Dimethyl-2-], 3.53 min. Next, `CC(C)CC1Nc2cc(Cl)c(S(N)(=O)=O)cc2S(=O)(=O)N1` (stereo not given) [Butizide]: 6.14 min. Under `CCCCCCCCCCCCCCN(C)C` [N,N-Dimethyltetradecylamine] stands 11.8 min; under `COc1ccc2[nH]cc(CC(=O)O)c2c1` [MeOT (5-)], 4.01 min; under `O=C(NCC1CN(c2ccc(N3CCOCC3=O)cc2)C(=O)O1)c1ccc(Cl)s1` (stereo not given) [Rivaroxaban], 7.03 min. For the compound `CCCCCCn1cc(C(=O)c2cccc3ccccc23)c2ccccc21` [JWH-019], the LC retention time was 12.9 min. On to `COCC(C)N(C(=O)CCl)c1c(C)csc1C` (stereo not given) [Dimethenamide], for which the LC retention time is 9.26 min.

Consider `Nc1ccc(S(=O)(=O)Nc2ccc(Cl)nn2)cc1` [Sulfachloropyridazine], for which the LC retention time was 4.56 min. Next, `CN1CCC23c4c5ccc(O)c4OC2C(=O)CCC3C1C5` (stereo not given) [Hydromorphone]: 2.91 min.

Source of the values: the RepoRT retention time repository (doi:10.1021/acs.analchem.2c02893).
